Counter-ions that a name gives are not always drawn.
target: human tryptase; assay: Inhibition of human tryptase (apparent dissociation constant Kiapp, chromogenic substrate tos-Gly-Pro-arg-pNA, heparin-stabilized); format: biochemical; conditions: apparent dissociation constant in the presence of substrate; human tryptase from lung tissue or recombinant; heparin 0.1-50 μg/ml; equilibrium conditions
Source text: The documented pathophysiological effects of mast cell tryptase are caused directly by the enzymatic activity of the protease. Accordingly, they are reduced or blocked by inhibitors which inhibit the enzymatic activity of the tryptase. A suitable measure for the affinity of a reversible inhibitor to the target protease is the equilibrium dissociation constant Ki of the enzyme-inhibitor complex. This Ki value can be determined via the effect of the inhibitor on the tryptase-induced cleavage of a chromogenic peptide-p-nitroanilide substrate or a fluorogenic peptide-aminomethylcoumarin substrate.
The dissociation constants for the tryptase-inhibitor complexes are determined under equilibrium conditions in accordance with the general proposals of Bieth (Bieth J G, Pathophysiological Interpretation of kinetic constants of protease inhibitors, Bull. Europ. Physiopath. Resp. 16:183-195, 1980) and the methods of Sommerhoff et al. (Sommerhoff C P et al., A Kazal-type inhibitor of human mast cell tryptase: Isolation from the medical leech Hirudo medicinalis, characterization, and sequence analysis, Biol. Chem. Hoppe-Seyler 375: 685-694, 1994).
Human tryptase is isolated from lung tissue or prepared recombinantly; the specific activity of the protease, determined by titration, is usually greater than 85% of the theoretical value. […] After an equilibrium between the reaction partners has formed, the remaining enzyme activity after addition of the peptide-p-nitroanilide substrate tos-Gly-Pro-arg-pNA is determined and the cleavage of the latter is monitored at 405 nm for 3 min. Alternatively, the remaining enzymatic activity can also be determined using fluorogenic substrates. The apparent dissociation constants Kiapp (i.e. in the presence of substrate) are subsequently determined by adapting the enzyme rates to the general equation for reversible inhibitors (Morrison J F, Kinetics of the reversible inhibition of enzyme-catalyzed reactions by tight-binding inhibitors, Biochim. Biophys. Acta 185, 269-286, 1969) using non-linear regression: […]

Compared with `NCc1cccc(CNC(=O)OCCOCC#CCOCCOC(=O)NCc2cccc(CN)c2)c1` [Compound 1, 1,4-Bis-(3-aminomethylbenzylaminocarbonyl-1,2-dioxyethyl)-2-butyne dihydrochloride], `NCc1cccc(CNC(=O)OCC#CCOC(=O)NCc2cccc(CN)c2)c1` [Compound 3, 1,4-Bis-(3-aminomethylbenzylaminocarbonyl-1-oxy)-2-butyne dihydrochloride] is 17-fold higher in Ki: 6 nM for the first, 100 nM for the second. The first binds more tightly here.

`NCc1ccc(CNC(=O)OCC#CC#CCOC(=O)NCc2ccc(CN)cc2)cc1` [Compound 2, 1,6-Bis-(4-aminomethylbenzylaminocarbonyl-1-oxy-2,4-hexadiynedihydrochloride] showed a Ki of 450 nM.
